Source: patent publication US20180267043A1, “USE OF BIOMARKERS FOR PREDICTING CLINICAL SENSITIVITY TO CANCER TREATMENT” (CELGENE CORPORATION, priority 2014, published 2018)

Assays:
[1] = target: T1, mouse CRBN isoform 2 (IKZF1/3, GSPT1/2 as substrates) (Mus musculus, UniProt Q8C7D2, V380E); test: Substrate degradation in CRBN−/− cells expressing mouse CRBN isoform 2 or mutants; format: cell-based; settings: mouse CRBN isoform 2 V380E; 1 μM Compound C
T1 construct: expressed in transfected cells; host or cells: CRBN-/- cells (elsewhere: 293FT, CRISPR)
T1 sequence (Q8C7D2 whole entry V380E, canonical isoform): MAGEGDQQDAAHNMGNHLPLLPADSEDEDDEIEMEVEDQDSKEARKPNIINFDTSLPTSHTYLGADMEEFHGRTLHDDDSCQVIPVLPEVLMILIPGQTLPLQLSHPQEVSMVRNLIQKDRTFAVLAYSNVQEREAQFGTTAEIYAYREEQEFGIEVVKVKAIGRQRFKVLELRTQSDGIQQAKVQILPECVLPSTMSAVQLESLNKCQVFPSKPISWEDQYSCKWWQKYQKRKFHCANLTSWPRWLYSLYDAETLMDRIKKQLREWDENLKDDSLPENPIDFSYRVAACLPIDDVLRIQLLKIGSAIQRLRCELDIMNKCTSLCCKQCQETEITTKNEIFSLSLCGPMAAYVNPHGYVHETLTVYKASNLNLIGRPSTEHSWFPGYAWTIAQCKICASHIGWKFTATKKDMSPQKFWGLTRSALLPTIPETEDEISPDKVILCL
Excerpt: (§1) To test this hypothesis, specific mutations in the compound-binding domain of mouse CRBN isoform2 were generated, such as V380E and I391V. Wild type mouse CRBN isoform 2 or each mutant was introduced to CRBN−/− cells. […] Thus, in mouse CRBN isoform 2, V380E and I391V mutations are sufficient to trigger the degradation of IKZF1/3 and GSPT1/2, respectively.

[2] = target: T2, mouse CRBN isoform 2 (IKZF1/3, GSPT1/2 as substrates) (Mus musculus, UniProt Q8C7D2, I391V); test: as above; format: cell-based; settings: mouse CRBN isoform 2 I391V; 10 μM lenalidomide or 1 μM Compound C
T2 construct: expressed in transfected cells; host or cells: CRBN-/- cells (elsewhere: 293FT, CRISPR)
T2 sequence (Q8C7D2 whole entry I391V, canonical isoform): as the sequence (Q8C7D2 whole entry V380E, canonical isoform) above, with E380V, I391V counted along it
Excerpt: as §1

PERK/EIF2a/ATF4 pathway = test: mRNA expression of PERK/EIF2a/ATF4 pathway components in DF15 MM cells; format: cell-based, human; settings: 20 nM
Method: (§2) Cells were treated with DMSO alone or 20 nM Compound C. After 5 or 10 hours, the expression level of various cellular components along UPR or apoptosis pathways was measured. […] Loss of BIP immunoreactivity indicates an induction of UPR.

XBP1 and ATF6 pathways = test: RNA level of XBP1 and ATF6 pathway components in KG1 cells; format: cell-based, human; settings: KG1, 20 nM, 2, 4, or 6 hours
Method: The mechanism of Compound C-activated XBP1 and ATF6 pathways of UPR was studied in KG1 cells. Cells were treated with DMSO or 20 nM Compound C for 2, 4, or 6 hours. The RNA level of variant cellular components along the XBP1 and ATF6 pathways was measured and normalized with GAPDH.

HEK 293FT cells = test: CellTiter-Glo cell viability assay, HEK 293FT cells with GSPT1 overexpression; format: cell-based, human
Method: The effect of overexpression of GSPT1 on Compound C-induced growth inhibition was tested in HEK 293FT cells. 293 cells stably expressing GSPT1 driven by three different promoters were generated. To these cells, Compound C was added at concentration of 0, 1 nM, 10 nM, 100 nM, or 1000 nM. Cell proliferation was measured by CellTiter-Glo cell viability assay (RLU-Relative Luminescent Unit) at day 2. […] The expression level of GSPT1 was measured at 10 hours after compound treatment in the right part of FIG. 7. […] Thus, overexpression of GSPT1 confers Compound C resistance to HEK 293FT cells.

GSPT1 and eRF1 [3] = test: Immunoblotting of GSPT1 and eRF1 in 293FT HEK cells; format: cell-based, human; settings: CRBN−/− cells with CRBNiso2 or CRBNiso2 W385A mutant
Method: (§3) CRBN+/+(293FT parental) cells were treated in parallel with CRBN−/− (CRISPR) cells, CRBN−/− cells expressing CRBN isoform 2, and CRBN−/− cells expressing CRBN isoform 2 with a W385A mutation.

GSPT1 and eRF1 [4] = target: T3, GSPT1 and eRF1 (Homo sapiens, UniProt P15170+); test: as above; format: cell-based
T3 construct: endogenous in cells; host or cells: 293FT HEK cells
Method: as §3

PERK pathway of UPR = test: RNA level of PERK pathway components in 293FT HEK cells; format: cell-based, human; settings: parental and control shRNA cells, 1 nM or 10 nM, 24 hours
Method: The mechanism of Compound C-induced Unfolded Protein Response (UPR) was studied in 293FT HEK cells. Parental cells, CRBN−/− cells, cells expressing control shRNA, or cells expressing GSPT1-specific shRNA were treated with DMSO, 1 nM, or 10 nM Compound C. The RNA level of variant cellular components along the PERK pathway of UPR was measured and normalized with GAPDH at 24 hours after treatment.

[5] = test system: normal peripheral blood mononuclear cell (PBMC); test: Response of normal PBMC: GSPT1, ATF3, DDIT3 and apoptosis indicators; format: cell-based; settings: 20 hours
Method: The response of PBMC to Compound C treatment was monitored by measuring the expression of GSPT1, ATF3, DDIT3, and downstream apoptosis indicators in PBMC. PBMCs were treated with 1 nM, 10 nM, 100 nM, or 1000 nM of Compound C for 20 hours. […] Thus, GSPT1, ATF3, DDIT3, cleaved Caspase-3, and cleaved PARP can serve as biomarkers predicting the toxicity of Compound C.

[6] = test system: GSPT1, UPR or apoptosis pathways; test: Protein level of UPR and apoptosis components in KG1 cells; format: cell-based, human
Method: Cells were treated with DMSO alone or 20 nM Compound C. The expression levels of various cellular components along UPR or apoptosis pathways were measured at various time points post treatment.

[7] = test system: GSPT1, IKZF1, IKZF3, UPR or apoptosis pathways; test: Protein level of UPR and apoptosis components in DF15 cells; format: cell-based, human; settings: DF15, 20 nM, 5 or 10 hours
Method: as §2

GSPT1 = target: T4, GSPT1 (Homo sapiens, UniProt P15170); test: GSPT1 expression level in HEK 293FT cells after compound treatment; format: cell-based; settings: CRBN+/+ cells, 10 hours, 100 nM or 1000 nM, compared to CRBN−/− cells
T4 construct: endogenous in cells; host or cells: HEK 293FT cells (CRBN+/+)
T4 sequence (P15170 whole entry): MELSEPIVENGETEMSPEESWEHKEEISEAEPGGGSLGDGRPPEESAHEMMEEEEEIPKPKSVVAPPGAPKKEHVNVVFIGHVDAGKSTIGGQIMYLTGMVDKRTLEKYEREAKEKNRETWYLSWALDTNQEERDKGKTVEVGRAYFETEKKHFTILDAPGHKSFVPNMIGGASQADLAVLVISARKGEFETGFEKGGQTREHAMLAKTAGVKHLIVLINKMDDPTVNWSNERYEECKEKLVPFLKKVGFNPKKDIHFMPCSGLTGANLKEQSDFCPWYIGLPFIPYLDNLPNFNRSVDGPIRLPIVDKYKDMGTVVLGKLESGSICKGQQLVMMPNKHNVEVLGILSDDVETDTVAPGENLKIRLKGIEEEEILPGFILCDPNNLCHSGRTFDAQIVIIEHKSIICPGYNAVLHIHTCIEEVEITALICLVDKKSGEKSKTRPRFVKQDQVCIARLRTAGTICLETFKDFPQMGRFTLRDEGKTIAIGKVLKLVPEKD
T4 sequence (Q96SW2 whole entry, further chain): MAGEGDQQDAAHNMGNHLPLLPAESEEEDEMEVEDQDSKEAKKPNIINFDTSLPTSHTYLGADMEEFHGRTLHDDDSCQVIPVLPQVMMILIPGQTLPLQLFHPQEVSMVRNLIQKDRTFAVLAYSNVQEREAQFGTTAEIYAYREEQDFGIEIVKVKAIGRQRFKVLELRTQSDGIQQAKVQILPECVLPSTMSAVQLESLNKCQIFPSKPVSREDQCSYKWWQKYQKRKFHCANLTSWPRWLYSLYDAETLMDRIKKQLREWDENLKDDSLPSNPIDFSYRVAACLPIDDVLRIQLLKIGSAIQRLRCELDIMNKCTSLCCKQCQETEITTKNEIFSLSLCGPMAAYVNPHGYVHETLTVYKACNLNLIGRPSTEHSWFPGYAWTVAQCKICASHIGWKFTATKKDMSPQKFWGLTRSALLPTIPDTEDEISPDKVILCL
T4 sequence (Q16531 whole entry partner): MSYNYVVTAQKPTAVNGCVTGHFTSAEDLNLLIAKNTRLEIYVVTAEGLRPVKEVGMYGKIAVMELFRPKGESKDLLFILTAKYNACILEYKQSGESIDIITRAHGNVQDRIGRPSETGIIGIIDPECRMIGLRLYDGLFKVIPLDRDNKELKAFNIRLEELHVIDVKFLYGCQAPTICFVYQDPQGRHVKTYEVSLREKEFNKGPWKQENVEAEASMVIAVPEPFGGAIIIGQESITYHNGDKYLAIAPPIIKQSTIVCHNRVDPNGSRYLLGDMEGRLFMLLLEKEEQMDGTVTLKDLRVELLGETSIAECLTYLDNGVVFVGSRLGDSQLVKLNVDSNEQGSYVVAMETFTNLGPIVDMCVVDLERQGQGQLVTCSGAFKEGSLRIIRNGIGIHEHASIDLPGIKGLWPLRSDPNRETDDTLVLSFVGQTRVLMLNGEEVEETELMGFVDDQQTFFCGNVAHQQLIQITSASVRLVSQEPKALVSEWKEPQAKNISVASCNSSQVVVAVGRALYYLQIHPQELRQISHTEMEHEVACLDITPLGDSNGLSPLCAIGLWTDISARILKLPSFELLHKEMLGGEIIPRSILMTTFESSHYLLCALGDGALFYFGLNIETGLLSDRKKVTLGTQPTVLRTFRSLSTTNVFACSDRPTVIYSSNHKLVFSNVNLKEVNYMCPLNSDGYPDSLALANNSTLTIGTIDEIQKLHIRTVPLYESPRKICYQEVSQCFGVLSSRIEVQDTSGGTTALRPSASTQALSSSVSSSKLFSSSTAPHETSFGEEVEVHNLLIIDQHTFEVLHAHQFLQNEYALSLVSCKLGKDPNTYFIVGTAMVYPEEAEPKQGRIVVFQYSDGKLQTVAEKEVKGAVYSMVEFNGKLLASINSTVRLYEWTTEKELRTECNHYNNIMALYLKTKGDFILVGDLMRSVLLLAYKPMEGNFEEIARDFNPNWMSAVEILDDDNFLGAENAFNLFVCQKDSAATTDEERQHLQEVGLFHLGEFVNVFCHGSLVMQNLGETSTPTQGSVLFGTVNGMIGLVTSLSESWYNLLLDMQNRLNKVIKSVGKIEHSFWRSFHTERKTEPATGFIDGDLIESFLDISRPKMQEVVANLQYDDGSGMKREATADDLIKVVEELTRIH

[8] = PBMC, 1 nM, 10 nM, 100 nM, or 1000 nM

Cc1ccc(NC(=O)NCc2ccc3c(c2)CN(C2CCC(=O)NC2=O)C3=O)cc1Cl (stereo not shown) [Compound C, 1-(3-chloro-4-methylphenyl)-3-((2-(2,6-dioxopiperidin-3-yl)-1-oxoisoindolin-5-yl)methyl)urea]
Degradation of GSPT1/2 [1]: restores Compound C-induced degradation of GSPT1/2 | Degradation of IKZF1/3 [2]: restores both lenalidomide- and Compound C-induced degradation of IKZF1/3 | Expression of ATF4, ATF3, DDIT3, PPP1R15A, and GADD45A (FIG. 16C) (PERK/EIF2a/ATF4 pathway): Compound C-induced expression of ATF4, ATF3, DDIT3, PPP1R15A, and GADD45A | RNA level of ATF6 pathway components (XBP1) (XBP1 and ATF6 pathways): induces expression | RNA level of XBP1 pathway components (SEC24D, DNAJB9, EDEM1, XBP1) (XBP1 and ATF6 pathways): induces expression | Cell proliferation (growth inhibition) (HEK 293FT cells; GSPT1 overexpression driven by different promoters, 0-1000 nM, day 2): confers various degrees of resistance to Compound C-induced growth inhibition | Cell proliferation (compound resistance) (HEK 293FT cells; cells expressing CMV-GSPT1): exhibit the highest level of Compound C resistance | Cell proliferation (HEK 293FT cells; parental cells, 0-1000 nM, day 2): inhibits cell proliferation in parental cells | Degradation of GSPT1 and eRF1 (GSPT1 and eRF1 [3]): restores Compound C-induced degradation of GSPT1 and eRF1 | Degradation of GSPT1 and eRF1 (GSPT1 and eRF1 [4]; CRBN+/+ (293FT parental) cells): induces degradation of GSPT1 and eRF1 in CRBN+/+ cells | Degradation of GSPT1 and eRF1 (GSPT1 and eRF1 [4]; CRBN+/+ cells with overexpression of GSPT1): reduces this degradation effect | RNA level of ATF4, ATF3, DDIT3, PPP1R15A, and GADD45A normalized with GAPDH (PERK pathway of UPR): induces expression of ATF4, ATF3, DDIT3, PPP1R15A, and GADD45A | Cleaved Caspase-3 [5, 8]: increasing cleaved Caspase-3 | Expression of GSPT1 [5, 8]: decreases the expression of GSPT1 | Level of p-EIF2α, ATF3 and DDIT3 [5, 8]: increases the level | Apoptosis ([5]; normal PBMC): induces apoptosis | Levels of Mcl-1 and pS112-BAD ([6]; KG1 (FIG. 18B)): decrease in response to Compound C treatment | Levels of cleaved Caspase-8, BID, cleaved Caspase-9, cleaved Caspase-3, cleaved Caspase-7, and cleaved PARP ([6]; KG1 (FIG. 18B)): increase in response to Compound C treatment | Degradation of GSPT1 ([6]; KG1, 20 nM): induced degradation of GSPT1 | Expression of ATF-4 and ATF-3 ([6]; KG1, 20 nM): increased the expression of ATF-4 and its downstream target ATF-3 | Levels of pEIF2α, DDIT3, cleaved Caspase-3, and cleaved PARP ([6]; KG1, 20 nM): also increased | Degradation of GSPT1, IKZF1, and IKZF3 [7]: induces degradation of GSPT1, IKZF1, and IKZF3 | Immunoreactivity of antibodies recognizing KDEL motif and BIP C-terminal epitope [7]: loss of immunoreactivity | Level of pEIF2α, ATF4, ATF3, DDIT3, cleaved caspase 3, and cleaved PARP [7]: increases the level | GSPT1 expression level (GSPT1): GSPT1 is degraded in CRBN+/+ cells
